Results reported in patent publication US9062095B2, “Mutant double cyclized receptor peptides inhibiting β1-adrenoceptor antibodies” (JULIUS-MAXIMILIANS-UNIVERSTITAT-WURZBURG, priority 2007, dated 2015).
Positions of bridges follow the written chain, without caps; N, C: chain ends.

Legend:
[1] = tested on: anti-beta1-receptor antibody-titers; assay: in vivo therapy study in long term immunized cardiomyopathic rats: antibody-titers by ELISA; parameters: species or system rat; settings: for in vivo blocking capacity after the first i.v. injection: sera 18-20 hours after injection (FIGS. 14 and 15)
Experimental: FIG. 16A is a diagram resuming the in vivo blocking effect of both 25AA and 18AA cyclopeptide mutants with a Gln closure site, determined after a total of nine intravenous (i.v.) in-jections of 1.0 mg/kg body weight (Bw) of the indicated peptides into immunized antibody-positive rats. Sera were drawn before and 18-20 hours after i.v. injection of the various peptides every 4 weeks (abscissa: time in months of treatment) and assayed for reactivity by ELISA using the 3 Cys-containing linear 25AA Cys/Cys-peptide as an antigen.
FIG. 16B is a diagram resuming the in vivo blocking effect of various concentrations of 18AA cyclopeptide mutants with a Gln closure site, determined after a total of nine intra-venous (i.v.) injections of 0.25, 1.0, 2.0, and 4.0 mg/kg body weight (Bw) into immunized antibody-positive rats, irrespective of the cyclopeptide “responder-state” of individual animals. Sera were drawn before and 18-20 hours after i.v. injection of the various peptides every 4 weeks (abscissa: time in months), and assayed for reactivity by ELISA using the 3 Cys-containing linear 25AA Cys/Cys-peptide as an antigen.
Sera were drawn as described above and assayed for reactivity by ELISA using the 3 Cys-containing linear 25AA Cys/Cys-peptide as an antigen.
Moreover, the in vivo blocking effects of therapeutically used 25AA and 18AA Cys/Ser cyclo-peptide mutants, the 18AA Ser/Cys mutant (Gln-)cyclopeptide, and a mutated linear 18AA Cys/Ser peptide were assessed after a first intravenous (i.v.) dose (i.e., 1.0 mg/kg body weight (Bw)) of each construct injected into long term immunized anti-beta1-ECII antibody-positive rats, yet presenting a cardiomyopathic phenotype (after nine months of 1× monthly immunization with the beta1-ECII/GST antigen; FIGS. 14-16 and 17). Sera were drawn 18-20 hours after the first i.v. injection of the various constructions and assayed for reactivity by ELISA using the 3 Cys-containing linear 25AA Cys/Cys-peptide as an antigen.
The latter doses were almost equally efficient in terms of both, neutralization of circulating receptor antibodies (FIGS. 16b and c), and reversal of antibody-induced cardiomyopathic features (FIGS. 17b, 19b, 20, and 21b).
In order to generate anti-β1-receptor antibodies the animals were immunized with a fusion protein containing bacterial glutathione-S-transferase and the sequence of the second extra-cellular loop of the human β1-adrenergic receptor (GST/β1-ECII). Before treatment of the animals with mutated cyclopeptides according to the present invention, progressive dilated immune cardiomyopathy is observed after 6 to 8 months of regular immunization every four weeks (FIG. 17). All of the immunized animals developed high titers of stimulatory anti-β1-ECII antibodies. The specific anti-β1-ECII titer reached a maximum between 6 and 8 months of continuously boosting the animals every 4 weeks, whereas NaCl-injected control animals developed no specific receptor antibodies (FIG. 18).
Such immunized animals were used for the application of mutant cyclopeptides according to the present invention. The in-vivo blocking effect of both 25AA and 18AA Cys/Ser mutant cyclopeptides (with a Gln closure site) were determined after a first intravenous (i.v.) injection of 1.0 mg/kg body weight (Bw) (for 18AA Cys/Ser cyclopeptides also 0.25 mg/kg/Bw) into immunized antibody-positive rats. Sera were drawn 18-20 hours after i.v. injection of the different peptides and assayed for reactivity by ELISA using the 3 Cys-containing linear 25AA Cys/Cys-peptide as an antigen.

anti-β1-ECII antibodies = assay: ELISA-competition assay: peptide preincubated with sera/IgG of immunized antibody-positive rats, linear 25AA Cys/Cys-peptide as antigen; format: binding, rat; settings: for decrease in circulating free anti-beta1-ECII antibodies: n=6 sera (FIG. 11)
How it was run: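 Rat sera or IgG fractions from immunized anti-β1-ECII antibody-positive rats preincubated 12 h at 4° C (rotating) with linear or cyclic β1-ECII peptides at fold molar excess (1:1 peptide:IgG assumed). Residual binding measured by ELISA on linear 25AA Cys/Cys-peptide antigen, given as % blocked versus non-blocked reactivity.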

Substance: Cyclo-Ala-Asp-Glu-Ala-Arg-Arg-Cys-Tyr-Asn-Asp-Pro-Lys-Cys-Ser-Asp-Phe-Val-Gln (cyclo(ADEARRCYNDPKCSDFVQ); disulfide 7-13; SMILES CC(C)[C@@H]1NC(=O)[C@H](Cc2ccccc2)NC(=O)[C@H](CC(=O)O)NC(=O)[C@H](CO)NC(=O)[C@@H]2CSSC[C@H](NC(=O)[C@H](CCCNC(=N)N)NC(=O)[C@H](CCCNC(=N)N)NC(=O)[C@H](C)NC(=O)[C@H](CCC(=O)O)NC(=O)[C@H](CC(=O)O)NC(=O)[C@H](C)NC(=O)[C@H](CCC(N)=O)NC1=O)C(=O)N[C@@H](Cc1ccc(O)cc1)C(=O)N[C@@H](CC(N)=O)C(=O)N[C@@H](CC(=O)O)C(=O)N1CCC[C@H]1C(=O)N[C@@H](CCCCN)C(=O)N2) [18AA Cys/Ser mutant (Gln-)cyclopeptide, disulphide bond Cys7-Cys13, ring closure Ala1-Gln18]
- number of responders (after 7 injections remaining antibody level equal or inferior to 80% of titer at start of therapy) ([1]; 0.25 mg/kg Bw (FIG. 16C)): 3/4
- achieved decrease in circulating receptor-antibodies compared with 1.0 or 2.0 mg/kg ([1]; 0.25 mg/kg Bw, repeated injections every 4 weeks): clearly less efficient
- in vivo blocking capacity after the first i.v. injection ([1]; 0.25 mg/kg body weight): no relevant decrease in receptor-antibodies
- number of responders (after 7 injections remaining antibody level equal or inferior to 80% of titer at start of therapy) ([1]; 1.0 mg/kg Bw (FIG. 16C)): 16/20
- initial transient increase in antibody-titers ([1]; 1.0 mg/kg Bw (FIGS. 16a and b)): did not occur
- in vivo blocking capacity after the first i.v. injection ([1]; 1 mg/kg Bw, listed as 18AA Cys/Ser cyclopeptide mutant): largely superior to that of the linear 18AA Cys/Ser peptide mutant
- in vivo blocking capacity after the first i.v. injection ([1]; 1 mg/kg Bw, listed as 18AA Cys/Ser cyclopeptide mutants): higher in vivo blocking capacity
- absolute decrease in antibody-titers after 9 months of treatment, of the titer at start of therapy ([1]; 1.0 mg/kg i.v. every 4 weeks): −59±14%
- initial transient increase in antibody-titers ([1]; 2.0 mg/kg Bw): did not occur
- number of responders (after 7 injections remaining antibody level equal or inferior to 80% of titer at start of therapy) ([1]; 2.0 mg/kg Bw (FIG. 16C)): 2/5
- absolute decrease in antibody-titers after 9 months of treatment, of the titer at start of therapy ([1]; 2.0 mg/kg i.v. every 4 weeks): −59±12%
- number of responders (after 7 injections remaining antibody level equal or inferior to 80% of titer at start of therapy) ([1]; 4.0 mg/kg Bw (FIG. 16C)): 6/9
- initial transient increase in antibody-titers ([1]; 4.0 mg/kg Bw (high dose)): transient increase in antibody-titers
- antibody scavenging capacity compared with 1.0 or 2.0 mg/kg ([1]; 4.0 mg/kg body weight, repeated injections every 4 weeks): did not result in higher efficiency
- absolute decrease in antibody-titers after 9 months of treatment, of the titer at start of therapy ([1]; 4.0 mg/kg i.v. every 4 weeks): −39±14%
- decrease in circulating free anti-beta1-ECII antibodies (anti-β1-ECII antibodies; 8-fold molar excess of peptide): 53%
- decrease in circulating free anti-beta1-ECII antibodies (anti-β1-ECII antibodies; 20-fold molar excess of peptide): 66%
- decrease in circulating free anti-beta1-ECII antibodies (anti-β1-ECII antibodies; 80-fold molar excess of peptide): about 85%
- blocking-efficiency versus unblocked sera (anti-β1-ECII antibodies; n=6 sera, incubation 12-14 h, 4° C., mean ±SEM (FIG. 27)): 60.0±8.3%
- fraction of rat sera blocked by the peptide (anti-β1-ECII antibodies; n=69 sera, (Gln-)cyclopeptide mutants (FIG. 10), Cys/Ser = blocked by it alone (n=64), Ser/Cys = sera blocked by both (n=5)): About 93%
- blocking efficiency (% of blocked versus non-blocked ELISA reactivity) (anti-β1-ECII antibodies; type1 sera (93%, n=64 of 69), FIG. 9 upper panel, ±SEM): 68±3%
- blocking capacity (% of blocked versus non-blocked ELISA reactivity) (anti-β1-ECII antibodies; type 2 sera (7%, n=5 of 69), FIG. 9 lower panel, ±SEM): 50±8%
